In ChEMBL document CHEMBL5584296, “Discovery of Novel Pyrimidine-Based Derivatives as Nav1.2 Inhibitors with Efficacy in Mouse Models of Epilepsy” (J Med Chem, 2024):
Each block holds one compound with its values, some of them ahead of it.

Legend:
[1] = molecular target: T1, Sodium channel protein type 2 subunit alpha (Homo sapiens, UniProt Q99250); test: Inhibition of Nav1.2 (unknown origin)
[2] = molecular target: T1, Sodium channel protein type 2 subunit alpha; test: Inhibition of Nav1.2 (unknown origin) at 100 uM relative to control
[3] = molecular target: T1, Sodium channel protein type 2 subunit alpha; test: Inhibition of human Nav1.2 expressed in HEK293 cells assessed as test to control ratio at 10 uM measured after 5 mins by whole cell voltage clamp electrophysiological analysis; type: cell-based
[4] = molecular target: T1, Sodium channel protein type 2 subunit alpha; test: Inhibition of human Nav1.2 expressed in HEK293 cells at 10 uM measured after 5 mins by whole cell voltage clamp electrophysiological analysis relative to control; type: cell-based
[5] = molecular target: T1, Sodium channel protein type 2 subunit alpha; test: Inhibition of human Nav1.2 expressed in HEK293 cells assessed as test to control ratio at 1 uM measured after 5 mins by whole cell voltage clamp electrophysiological analysis; type: cell-based
[6] = molecular target: T1, Sodium channel protein type 2 subunit alpha; test: Inhibition of human Nav1.2 expressed in HEK293 cells assessed as test to control ratio at 0.1 uM measured after 5 mins by whole cell voltage clamp electrophysiological analysis; type: cell-based
Mus musculus [7] = test: Antiepileptic activity in 6 Hz(32 mA)-induced seizure male C57BL mouse model assessed as protection against seizure at 200 mg/kg, ip administered for 30 mins by epilepsy test; type: functional; conditions: 0.5 h
Mus musculus [8] = test: Antiepileptic activity in MES-induced seizure male ICR mouse model assessed as protection against tonic hind limb extension at 300 mg/kg, ip measured after 30 mins relative to control; type: functional; conditions: 0.5 h
[9] = Neurotoxicity in male ICR mouse assessed as motor impairment at 5 mg/kg, ip administered for 30 mins by rotarod test relative to control; type: toxicity, organism-based; conditions: in vivo, 0.5 h
[10] = molecular target: Sodium channel protein type 8 subunit alpha (Homo sapiens) (UniProt Q9UQD0); test: Inhibition of human Nav1.6 expressed in CHO cells assessed as test to control ratio at 0.1 uM by whole cell voltage clamp electrophysiological analysis; type: cell-based
Mus musculus [11] = test: Antiepileptic activity in 6 Hz(32 mA)-induced seizure male C57BL mouse model administered intraperitoneally for 30 mins by epilepsy test; type: functional; conditions: 0.5 h, route ip
[12] = molecular target: T2, Sodium channel protein type 5 subunit alpha (Homo sapiens, UniProt Q14524); test: Inhibition of human Nav1.5 expressed in CHL cells assessed as test to control ratio at 0.1 uM by whole cell voltage clamp electrophysiological analysis; type: cell-based
[13] = Neurotoxicity in male ICR mouse assessed as motor impairment at 35 mg/kg, ip administered for 30 mins by rotarod test relative to control; type: toxicity, organism-based; conditions: in vivo, 0.5 h
[14] = Neurotoxicity in male ICR mouse assessed as motor impairment at 40 mg/kg, ip administered for 30 mins by rotarod test relative to control; type: toxicity, organism-based; conditions: in vivo, 0.5 h
Mus musculus [15] = test: Antiepileptic activity in 6 Hz(32 mA)-induced seizure male C57BL mouse model assessed as protection against seizure at 5 mg/kg, ip administered for 30 mins by epilepsy test; type: functional; conditions: 0.5 h
[16] = molecular target: T1, Sodium channel protein type 2 subunit alpha; test: Inhibition of human Nav1.2 expressed in HEK293 cells at -40 mv holding potential measured after 5 mins by whole cell voltage clamp electrophysiological analysis; type: cell-based
[17] = molecular target: Sodium channel protein type 1 subunit alpha (Homo sapiens) (UniProt P35498); test: Inhibition of human Nav1.1 expressed in HEK293 cells assessed as test to control ratio at 0.1 uM by whole cell voltage clamp electrophysiological analysis; type: cell-based
[18] = molecular target: Sodium channel protein type 8 subunit alpha (Homo sapiens) (UniProt Q9UQD0); test: Inhibition of human Nav1.6 expressed in CHO cells assessed as test to control ratio at 1 uM by whole cell voltage clamp electrophysiological analysis; type: cell-based
Mus musculus [19] = test: Antiepileptic activity in MES-induced seizure male ICR mouse model assessed as protection against tonic hind limb extension at 15 mg/kg, ip measured after 30 mins relative to control; type: functional; conditions: 0.5 h
[20] = Neurotoxicity in male ICR mouse assessed as motor impairment at 30 mg/kg, ip administered for 30 mins by rotarod test relative to control; type: toxicity, organism-based; conditions: in vivo, 0.5 h
[21] = molecular target: T1, Sodium channel protein type 2 subunit alpha; test: Inhibition of human Nav1.2 expressed in HEK293 cells assessed as effect on steady state activation by measuring half activation potential at 0.2 uM (reference value: -36 mV); type: cell-based
[22] = molecular target: Sodium channel protein type 1 subunit alpha (Homo sapiens) (UniProt P35498); test: Inhibition of human Nav1.1 expressed in HEK293 cells assessed as test to control ratio at 1 uM by whole cell voltage clamp electrophysiological analysis; type: cell-based
[23] = molecular target: T2, Sodium channel protein type 5 subunit alpha; test: Inhibition of human Nav1.5 expressed in CHL cells assessed as test to control ratio at 1 uM by whole cell voltage clamp electrophysiological analysis; type: cell-based
[24] = Neurotoxicity in male ICR mouse assessed as motor impairment at 37 mg/kg, ip administered for 30 mins by rotarod test relative to control; type: toxicity, organism-based; conditions: in vivo, 0.5 h
Mus musculus [25] = test: Antiepileptic activity in 6 Hz(32 mA)-induced seizure male C57BL mouse model assessed as protection against seizure at 10 mg/kg, ip administered for 30 mins by epilepsy test; type: functional; conditions: 0.5 h
[26] = molecular target: T1, Sodium channel protein type 2 subunit alpha; test: Inhibition of human Nav1.2 expressed in HEK293 cells assessed as effect on steady state inactivation by measuring half activation potential at 0.2 uM (reference value: -54 mV); type: cell-based
[27] = molecular target: T1, Sodium channel protein type 2 subunit alpha; test: Inhibition of human Nav1.2 expressed in HEK293 cells at -120 mv holding potential measured after 5 mins by whole cell voltage clamp electrophysiological analysis; type: cell-based
[28] = Neurotoxicity in male ICR mouse administered intraperitoneally for 30 mins; type: toxicity; conditions: in vivo, route ip
Mus musculus [29] = test: Antiepileptic activity in MES-induced seizure male ICR mouse model assessed as protection against tonic hind limb extension at 25 mg/kg, ip measured after 30 mins relative to control; type: functional; conditions: 0.5 h
Mus musculus [30] = test: Antiepileptic activity in MES-induced seizure male ICR mouse model assessed as protection against tonic hind limb extension administered intraperitoneally for 30 mins; type: functional; conditions: 0.5 h, route ip
Mus musculus [31] = test: Antiepileptic activity in 6 Hz(32 mA)-induced seizure male C57BL mouse model assessed as protection against seizure at 30 mg/kg, ip administered for 30 mins by epilepsy test; type: functional; conditions: 0.5 h
Mus musculus [32] = test: Antiepileptic activity in MES-induced seizure male ICR mouse model assessed as protection against tonic hind limb extension at 5 mg/kg, ip measured after 30 mins relative to control; type: functional; conditions: 0.5 h
[33] = molecular target: T1, Sodium channel protein type 2 subunit alpha; test: Inhibition of human Nav1.2 expressed in HEK293 cells assessed as effect on steady state inactivation by measuring half activation potential at 20 uM (reference value: -59 mV); type: cell-based
[34] = molecular target: T1, Sodium channel protein type 2 subunit alpha; test: Inhibition of human Nav1.2 expressed in HEK293 cells assessed as effect on steady state activation by measuring half activation potential at 20 uM (reference value: -37 mV); type: cell-based
[35] = Neurotoxicity in male ICR mouse assessed as motor impairment at 300 mg/kg, ip administered for 30 mins by rotarod test relative to control; type: toxicity, organism-based; conditions: in vivo, 0.5 h
Mus musculus [36] = test: Antiepileptic activity in 6 Hz(32 mA)-induced seizure male C57BL mouse model assessed as protection against seizure at 50 mg/kg, ip administered for 30 mins by epilepsy test; type: functional; conditions: 0.5 h
[37] = Neurotoxicity in male ICR mouse assessed as motor impairment at 250 mg/kg, ip administered for 30 mins by rotarod test relative to control; type: toxicity, organism-based; conditions: in vivo, 0.5 h
Mus musculus [38] = test: Antiepileptic activity in MES-induced seizure male ICR mouse model assessed as protection against tonic hind limb extension at 30 mg/kg, ip measured after 30 mins relative to control; type: functional; conditions: 0.5 h
Mus musculus [39] = test: Antiepileptic activity in MES-induced seizure male ICR mouse model assessed as protection against tonic hind limb extension at 20 mg/kg, ip measured after 30 mins relative to control; type: functional; conditions: 0.5 h
Mus musculus [40] = test: Antiepileptic activity in MES-induced seizure male ICR mouse model assessed as protection against tonic hind limb extension at 10 mg/kg, ip measured after 30 mins relative to control; type: functional; conditions: 0.5 h
[41] = Neurotoxicity in male ICR mouse assessed as motor impairment at 150 mg/kg, ip administered for 30 mins by rotarod test relative to control; type: toxicity, organism-based; conditions: in vivo, 0.5 h

Sequence of Sodium channel protein type 8 subunit alpha (Homo sapiens) (Q9UQD0 whole entry, looked up): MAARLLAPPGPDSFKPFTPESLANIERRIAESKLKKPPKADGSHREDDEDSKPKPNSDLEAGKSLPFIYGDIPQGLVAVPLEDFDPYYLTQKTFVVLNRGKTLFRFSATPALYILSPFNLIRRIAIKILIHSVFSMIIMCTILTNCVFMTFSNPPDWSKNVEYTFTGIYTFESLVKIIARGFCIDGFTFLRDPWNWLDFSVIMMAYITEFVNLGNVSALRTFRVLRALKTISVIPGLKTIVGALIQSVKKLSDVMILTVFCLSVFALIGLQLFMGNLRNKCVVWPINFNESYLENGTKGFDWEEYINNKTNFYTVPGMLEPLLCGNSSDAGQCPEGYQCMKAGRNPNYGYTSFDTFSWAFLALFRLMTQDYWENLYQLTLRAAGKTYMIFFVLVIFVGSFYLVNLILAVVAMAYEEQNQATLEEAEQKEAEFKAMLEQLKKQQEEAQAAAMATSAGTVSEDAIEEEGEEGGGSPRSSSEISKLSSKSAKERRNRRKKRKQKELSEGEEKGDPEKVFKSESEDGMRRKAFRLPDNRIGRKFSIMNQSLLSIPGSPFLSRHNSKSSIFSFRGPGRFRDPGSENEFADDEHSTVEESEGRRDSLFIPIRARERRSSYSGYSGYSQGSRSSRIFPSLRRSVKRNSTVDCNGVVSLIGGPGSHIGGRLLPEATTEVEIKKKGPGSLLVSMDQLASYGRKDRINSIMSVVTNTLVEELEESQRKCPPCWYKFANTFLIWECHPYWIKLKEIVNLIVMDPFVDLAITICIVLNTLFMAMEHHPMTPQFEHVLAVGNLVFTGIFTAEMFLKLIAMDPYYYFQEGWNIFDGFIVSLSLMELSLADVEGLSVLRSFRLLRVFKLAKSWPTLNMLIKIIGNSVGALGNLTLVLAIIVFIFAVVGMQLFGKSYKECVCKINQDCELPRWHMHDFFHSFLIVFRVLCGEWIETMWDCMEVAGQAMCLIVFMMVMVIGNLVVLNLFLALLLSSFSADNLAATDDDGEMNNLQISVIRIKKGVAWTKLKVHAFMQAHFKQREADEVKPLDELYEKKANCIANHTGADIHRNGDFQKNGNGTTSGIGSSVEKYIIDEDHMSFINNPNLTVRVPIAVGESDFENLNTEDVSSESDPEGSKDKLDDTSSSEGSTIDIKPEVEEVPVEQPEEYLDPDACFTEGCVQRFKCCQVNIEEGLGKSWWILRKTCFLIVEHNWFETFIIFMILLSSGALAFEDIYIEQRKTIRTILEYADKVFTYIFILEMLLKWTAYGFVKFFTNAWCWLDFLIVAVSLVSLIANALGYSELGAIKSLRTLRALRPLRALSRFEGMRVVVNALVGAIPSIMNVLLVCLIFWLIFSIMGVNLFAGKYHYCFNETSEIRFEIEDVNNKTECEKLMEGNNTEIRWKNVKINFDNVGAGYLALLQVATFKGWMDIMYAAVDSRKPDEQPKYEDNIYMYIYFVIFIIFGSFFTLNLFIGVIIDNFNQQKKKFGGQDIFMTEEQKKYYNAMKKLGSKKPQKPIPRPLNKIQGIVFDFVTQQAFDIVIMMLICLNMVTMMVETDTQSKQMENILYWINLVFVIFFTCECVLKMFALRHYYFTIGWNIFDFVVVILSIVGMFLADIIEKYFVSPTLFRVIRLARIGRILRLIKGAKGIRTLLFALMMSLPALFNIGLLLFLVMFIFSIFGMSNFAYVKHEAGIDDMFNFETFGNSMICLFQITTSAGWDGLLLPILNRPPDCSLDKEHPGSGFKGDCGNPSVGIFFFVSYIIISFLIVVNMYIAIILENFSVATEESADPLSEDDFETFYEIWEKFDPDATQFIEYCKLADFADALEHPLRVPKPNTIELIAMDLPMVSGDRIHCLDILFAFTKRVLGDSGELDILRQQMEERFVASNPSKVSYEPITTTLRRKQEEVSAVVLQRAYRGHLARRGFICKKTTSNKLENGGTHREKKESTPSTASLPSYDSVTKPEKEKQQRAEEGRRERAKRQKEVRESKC
T2 sequence (Q14524 whole entry): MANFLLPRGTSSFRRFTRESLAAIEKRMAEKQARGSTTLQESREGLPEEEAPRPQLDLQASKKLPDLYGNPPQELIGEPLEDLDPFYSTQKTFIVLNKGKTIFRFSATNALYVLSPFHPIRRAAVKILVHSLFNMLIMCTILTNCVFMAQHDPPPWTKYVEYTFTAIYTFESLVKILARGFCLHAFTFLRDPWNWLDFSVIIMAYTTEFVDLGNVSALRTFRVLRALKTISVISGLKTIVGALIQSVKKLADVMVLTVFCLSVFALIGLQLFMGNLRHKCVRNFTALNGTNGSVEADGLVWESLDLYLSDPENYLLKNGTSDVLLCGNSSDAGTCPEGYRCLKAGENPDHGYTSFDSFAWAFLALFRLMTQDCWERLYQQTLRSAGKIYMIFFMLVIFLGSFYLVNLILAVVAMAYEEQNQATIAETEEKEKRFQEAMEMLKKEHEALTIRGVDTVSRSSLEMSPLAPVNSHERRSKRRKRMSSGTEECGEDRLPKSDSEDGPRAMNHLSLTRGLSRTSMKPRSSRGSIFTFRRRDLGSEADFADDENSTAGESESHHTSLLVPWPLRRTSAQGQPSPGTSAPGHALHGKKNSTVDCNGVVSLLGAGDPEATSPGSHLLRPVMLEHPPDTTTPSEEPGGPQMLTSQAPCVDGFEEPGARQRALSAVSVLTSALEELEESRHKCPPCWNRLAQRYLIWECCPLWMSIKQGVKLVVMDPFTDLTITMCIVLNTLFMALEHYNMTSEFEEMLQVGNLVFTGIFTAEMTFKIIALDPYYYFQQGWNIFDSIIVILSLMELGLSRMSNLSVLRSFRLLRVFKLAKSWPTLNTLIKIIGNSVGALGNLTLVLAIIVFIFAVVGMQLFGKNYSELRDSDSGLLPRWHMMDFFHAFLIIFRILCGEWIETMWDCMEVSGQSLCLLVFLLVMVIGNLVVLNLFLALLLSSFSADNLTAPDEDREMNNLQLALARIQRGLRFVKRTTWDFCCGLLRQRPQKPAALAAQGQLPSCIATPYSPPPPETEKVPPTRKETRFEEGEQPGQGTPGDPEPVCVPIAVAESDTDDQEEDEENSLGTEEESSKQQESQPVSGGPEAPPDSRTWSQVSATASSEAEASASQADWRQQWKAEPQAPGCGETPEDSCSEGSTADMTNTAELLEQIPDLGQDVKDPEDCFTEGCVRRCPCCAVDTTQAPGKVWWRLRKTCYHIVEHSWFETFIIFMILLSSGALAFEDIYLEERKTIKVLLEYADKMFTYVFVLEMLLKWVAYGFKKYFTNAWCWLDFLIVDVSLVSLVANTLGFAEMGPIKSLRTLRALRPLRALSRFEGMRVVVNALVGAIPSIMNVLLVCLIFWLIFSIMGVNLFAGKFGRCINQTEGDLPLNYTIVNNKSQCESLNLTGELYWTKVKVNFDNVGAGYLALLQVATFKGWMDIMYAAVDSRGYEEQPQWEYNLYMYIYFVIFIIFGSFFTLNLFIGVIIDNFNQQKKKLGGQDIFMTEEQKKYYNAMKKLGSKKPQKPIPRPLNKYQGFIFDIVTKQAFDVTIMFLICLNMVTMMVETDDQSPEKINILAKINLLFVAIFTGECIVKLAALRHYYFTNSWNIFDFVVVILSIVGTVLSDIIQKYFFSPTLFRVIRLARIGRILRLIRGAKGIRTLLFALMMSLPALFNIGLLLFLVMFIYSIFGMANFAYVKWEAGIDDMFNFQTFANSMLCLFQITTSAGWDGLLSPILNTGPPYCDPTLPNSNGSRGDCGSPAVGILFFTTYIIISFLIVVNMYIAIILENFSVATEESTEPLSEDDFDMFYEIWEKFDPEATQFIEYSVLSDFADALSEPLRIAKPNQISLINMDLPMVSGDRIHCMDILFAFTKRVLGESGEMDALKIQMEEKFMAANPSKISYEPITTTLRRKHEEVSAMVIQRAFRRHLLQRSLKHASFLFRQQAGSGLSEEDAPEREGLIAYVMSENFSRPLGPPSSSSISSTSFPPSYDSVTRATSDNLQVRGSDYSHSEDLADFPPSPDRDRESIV

T/C [10]: 0.42
T/C [3]: 0
IC50 [16]: 65 nM
T/C [17]: 0.18
T/C [18]: 0.09
V1/2 [21]: -30 mV
T/C [22]: 0.02
V1/2 [26]: -56 mV
IC50 [27]: 158 nM
T/C [5]: 0.04
T/C [6]: 0.39
SMILES: COc1cccc(-c2cc(N3CCCc4ccc(C)cc4C3)nc(N)n2)c1
ED50 (Mus musculus [11]): 18.5 mg/kg
T/C [12]: 0.18
Activity [13]: 63%
Activity [14]: 100%
Activity (Mus musculus [15]): 13%
Activity (Mus musculus [19]): 44%
Activity [20]: 38%
T/C [23]: 0.07
Activity [24]: 88%
Activity (Mus musculus [25]): 38%
TD50 at 0.5 h [28]: 31.9 mg/kg
Activity (Mus musculus [29]): 88%
ED50 (Mus musculus [30]): 11.1 mg/kg
Activity (Mus musculus [31]): 63%
Activity (Mus musculus [32]): 25%

T/C [3]: 0.01
T/C [5]: 0.19
T/C [6]: 0.88
SMILES: COc1cccc(-c2nc(N)nc(N3CCCc4ccc(C)cc4C3)c2F)c1

T/C [3]: 0.13
T/C [5]: 0.35
T/C [6]: 0.68
SMILES: COc1cccc(-c2cc(N3CCc4ccccc4C3)nc(N)n2)c1

T/C [3]: 0
T/C [5]: 0.03
T/C [6]: 0.84
SMILES: COc1cccc(-c2cc(N3CCCc4ccc(F)cc4C3)nc(N)n2)c1

T/C [3]: 0.04
T/C [5]: 0.03
T/C [6]: 0.39
SMILES: COc1cccc(-c2cc(N3CCCc4cc(F)ccc4C3)nc(N)n2)c1

Further lines, the compound ahead of its results:

SMILES: Nc1cnc(-c2cc(Cl)cc(Cl)c2Cl)c(N)n1 [ELPETRIGINE]
IC50 [1]: 6000 nM

SMILES: O=C(CC(c1ccccc1)c1ccccc1)N1CCN(CCO)CC1
inhibition [2]: 59.1%

SMILES: Cc1cccc(C)c1OCCCNCc1cc(C(C)(C)C)c(O)c(C(C)(C)C)c1
IC50 [1]: 180 nM

SMILES: COc1cccc(-c2cc(NCc3ccc(OC)c(OC)c3)nc(N)n2)c1
T/C [3]: 0.24
inhibition [4]: 76%
T/C [5]: 0.4
T/C [6]: 0.7

SMILES: CCCC(CCC)C(=O)O [VALPROIC ACID]
Activity (Mus musculus [7]): 100%
Activity (Mus musculus [8]): 100%

SMILES: CCCc1ccc(S(=O)(=O)Nc2nc(-c3cccc(OC)c3)cc(N3CCCc4ccccc4C3)n2)cc1
T/C [3]: 0.08
inhibition [4]: 92%
T/C [5]: 0.12
T/C [6]: 0.86

SMILES: CN(C)CCCN1c2ccccc2Sc2ccc(Cl)cc21 [CHLORPROMAZINE]
Activity [9]: 88%

SMILES: COc1cccc(-c2cc(N3CCc4cc(OC)c(OC)cc4C3)nc(N)n2)c1
T/C [3]: 0.01
inhibition [4]: 99%
T/C [5]: 0.35
T/C [6]: 0.67

SMILES: COc1cccc(-c2cc(N3CC4CC(C3)c3ccccc34)nc(N)n2)c1
T/C [10]: 0.51
ED50 (Mus musculus [11]): 38 mg/kg
T/C [12]: 0.89
V1/2 [33]: -70 mV
T/C [3]: 0.02
V1/2 [34]: -32 mV
Activity [35]: 88%
IC50 [16]: 635 nM
T/C [17]: 0.93
T/C [18]: 0.1
T/C [22]: 0.33
T/C [23]: 0.37
Activity (Mus musculus [25]): 13%
Activity (Mus musculus [36]): 63%
Activity [37]: 38%
IC50 [27]: 21500 nM
Activity (Mus musculus [38]): 75%
Activity (Mus musculus [39]): 50%
TD50 at 0.5 h [28]: 232 mg/kg
T/C [5]: 0.4
Activity (Mus musculus [40]): 38%
Activity [41]: 13%
ED50 (Mus musculus [30]): 15.8 mg/kg
Activity (Mus musculus [31]): 38%
T/C [6]: 0.87
